Measured values as given in ChEMBL document CHEMBL1201862, “PubChem BioAssay data set” (2004).
Calls of active or inactive are those of the source.

What was measured:
[1] = target: T1, DNA dC->dU-editing enzyme APOBEC-3G (Homo sapiens, UniProt Q9HC16); test: Dose Response confirmation of small molecule APOBEC3G DNA Deaminase Inhibitors via a fluorescence-based single-stranded DNA deaminase assay. [Related pubchem assays (depositor defined):AID493012, AID493028]; type: functional
[2] = target: T2, DNA dC->dU-editing enzyme APOBEC-3A (Homo sapiens, UniProt P31941); test: APOBEC3A DNA deaminase inhibitors, dose response, biochemical (AID 504722); type: functional
[3] = target: T3, Leucine aminopeptidase (Plasmodium falciparum 3D7, UniProt Q8IL11); test: P. falciparum M17LAP inhibitors, primary screen, biochemical, fluorogenic H-Leu-NHMec substrate, 1536-well (AID 1619); type: functional
T3 sequence (Q8IL11 whole entry): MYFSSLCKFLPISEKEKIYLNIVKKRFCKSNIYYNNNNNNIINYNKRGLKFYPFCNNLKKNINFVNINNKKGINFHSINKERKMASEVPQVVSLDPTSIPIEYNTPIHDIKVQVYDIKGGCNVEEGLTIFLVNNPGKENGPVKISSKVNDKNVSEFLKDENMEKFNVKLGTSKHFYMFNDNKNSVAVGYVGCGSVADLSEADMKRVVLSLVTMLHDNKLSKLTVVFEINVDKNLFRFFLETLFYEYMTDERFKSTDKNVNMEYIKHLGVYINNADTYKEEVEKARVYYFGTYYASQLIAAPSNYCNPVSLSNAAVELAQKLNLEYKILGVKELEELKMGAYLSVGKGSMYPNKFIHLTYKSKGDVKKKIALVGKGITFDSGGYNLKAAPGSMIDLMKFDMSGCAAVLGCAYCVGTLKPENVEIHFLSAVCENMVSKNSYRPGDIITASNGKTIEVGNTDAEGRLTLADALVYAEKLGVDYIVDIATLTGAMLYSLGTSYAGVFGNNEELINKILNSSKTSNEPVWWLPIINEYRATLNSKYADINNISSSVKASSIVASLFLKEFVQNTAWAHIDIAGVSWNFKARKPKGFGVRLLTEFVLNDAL

[4] = target: Voltage-dependent T-type calcium channel subunit alpha-1H (Homo sapiens, UniProt O95180); type: functional;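 also: channel activity triggered by adding a high calcium stimulation buffer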
[5] = target: T2, DNA dC->dU-editing enzyme APOBEC-3A; test: Dose Response confirmation of small molecule APOBEC3A DNA Deaminase Inhibitors via a fluorescence-based single-stranded DNA deaminase assay. [Related pubchem assays (depositor defined):AID493011, AID493024]; type: functional
[6] = target: T1, DNA dC->dU-editing enzyme APOBEC-3G; type: functional
[7] = target: T4, Aminopeptidase N (Plasmodium falciparum FcB1/Columbia, UniProt O96935); test: P. falciparum M1AAP inhibitors, biochemical, fluorogenic H-Leu-NHMec substrate, 1536-well (AID 1445); design: species or system Plasmodium falciparum 3D7, 3D7
T4 sequence (O96935 whole entry): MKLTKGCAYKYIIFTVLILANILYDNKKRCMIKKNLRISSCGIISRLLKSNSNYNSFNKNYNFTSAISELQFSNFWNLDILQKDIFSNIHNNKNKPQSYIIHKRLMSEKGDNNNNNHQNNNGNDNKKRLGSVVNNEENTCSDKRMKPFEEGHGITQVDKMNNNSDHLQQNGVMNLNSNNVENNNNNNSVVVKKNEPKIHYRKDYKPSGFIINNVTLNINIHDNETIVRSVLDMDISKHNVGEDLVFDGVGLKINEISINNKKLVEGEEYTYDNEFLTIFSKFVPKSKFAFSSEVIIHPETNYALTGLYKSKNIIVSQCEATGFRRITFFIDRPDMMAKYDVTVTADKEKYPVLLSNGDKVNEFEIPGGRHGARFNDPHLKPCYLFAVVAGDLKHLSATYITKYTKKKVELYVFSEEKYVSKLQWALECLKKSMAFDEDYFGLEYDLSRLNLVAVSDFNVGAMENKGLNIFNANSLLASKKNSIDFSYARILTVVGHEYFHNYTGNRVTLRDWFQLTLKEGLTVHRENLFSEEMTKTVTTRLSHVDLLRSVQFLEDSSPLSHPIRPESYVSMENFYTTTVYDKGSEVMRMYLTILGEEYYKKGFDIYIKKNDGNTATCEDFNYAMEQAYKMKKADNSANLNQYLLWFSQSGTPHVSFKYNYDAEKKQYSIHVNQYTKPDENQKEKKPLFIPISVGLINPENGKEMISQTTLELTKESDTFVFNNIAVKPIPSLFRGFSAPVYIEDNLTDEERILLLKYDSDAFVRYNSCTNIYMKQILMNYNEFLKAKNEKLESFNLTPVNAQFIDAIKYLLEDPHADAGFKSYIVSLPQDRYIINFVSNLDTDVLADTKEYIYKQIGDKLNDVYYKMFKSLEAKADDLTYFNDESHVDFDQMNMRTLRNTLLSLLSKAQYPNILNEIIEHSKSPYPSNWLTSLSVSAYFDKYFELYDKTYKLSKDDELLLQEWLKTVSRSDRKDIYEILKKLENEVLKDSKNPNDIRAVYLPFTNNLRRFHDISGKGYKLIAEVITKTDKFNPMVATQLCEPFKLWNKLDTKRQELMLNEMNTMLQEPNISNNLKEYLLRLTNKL

[8] = cytotoxicity in HEK-293T cells, dose response, cytotoxicity control for TCR NF-kB inhibitor project, luminescence, T-cell screen hits (AID 489026); type: functional, cell-based;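 also: cells exposed to compound about 14 hours before the viability readout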
[9] = system: H4; test: Luminescence Cell-Based Dose Response HTS to Identify Activators of 5'UTR Stem-Loop Driven Prion Protein mRNA Translation in H4 Neuroglioblastoma Cells. [Related pubchem assays: 1829 (Project Summary), 1814 (Primary HTS)]; type: functional; settings: Homo sapiens
[10] = Luminescence Cell-Based Dose Response HTS to Identify Activators of Luciferase Translation or Activity in H4 […] Cells. [Related pubchem assays: 1829 (Project Summary), 1814 (Primary HTS)]; type: functional
[11] = Luminescence Cell-Based Dose Confirmation HTS to Identify Activators of 5'UTR Stem-Loop Driven Alpha-Synuclein mRNA Translation in H4 Neuroglioblastoma Cells. [Related pubchem assays: 1829 (Project Summary), 1814 (Primary HTS)]; type: functional
[12] = target: Glucose-6-phosphate 1-dehydrogenase (Homo sapiens, UniProt P11413); test: human G6PD enzyme inhibitors, dose response, selectivity assay for P. falciparum G6PD inhibitor project, biochemical, fluorescence (AID 504792); type: functional
[13] = target: Nonstructural protein 1 (Influenza A virus, UniProt Q194T2); type: functional, Influenza A virus (A/California/07/2009(H1N1))
[14] = growth suppression of PTEN-null colon cells, dose response, cell-based, HCT116 PTEN knockout (AID 1047); type: functional;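 also: HCT116 colon tumor cells with PTEN knocked out; cells exposed to compound for 60 hours before readout; potency for loss of cell viability measured by luminescence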
[15] = growth suppression of beta-catenin-knockout colon cells, dose response, cell-based, HCT116, human colon tumor (AID 1045); type: functional;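 also: HCT116 colon tumor cells with beta catenin knocked out; cells exposed to compound for 60 hours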
[16] = target: T5, Fatty acid synthase (Homo sapiens, UniProt P49327); test: FAS thioesterase domain inhibitors, dose response, biochemical, kinetic fluorescence intensity (AID 624326); type: functional;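 also: rate of fluorescence rise from hydrolysis of a fluorogenic O-methyl fluorescein ester substrate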
[17] = target: T5, Fatty acid synthase; test: FAS thioesterase domain inhibitors, dose response, biochemical, endpoint fluorescence intensity, uHTS hits (AID 624327); type: functional;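 also: fluorescence from hydrolysis of an O-methyl fluorescein acyl ester substrate by the enzyme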
[18] = HEp-2 cell cytotoxicity, dose response, cytotoxicity control for RSV inhibitor project, HTS (AID 2410); type: functional; settings: human respiratory syncytial virus
[19] = target: Cytochrome P450 2D6 (Homo sapiens, UniProt P10635);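 also: CYP2D6 member of a cytochrome P450 panel assay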
Chain of Cytochrome P450 2D6 (P10635 whole entry): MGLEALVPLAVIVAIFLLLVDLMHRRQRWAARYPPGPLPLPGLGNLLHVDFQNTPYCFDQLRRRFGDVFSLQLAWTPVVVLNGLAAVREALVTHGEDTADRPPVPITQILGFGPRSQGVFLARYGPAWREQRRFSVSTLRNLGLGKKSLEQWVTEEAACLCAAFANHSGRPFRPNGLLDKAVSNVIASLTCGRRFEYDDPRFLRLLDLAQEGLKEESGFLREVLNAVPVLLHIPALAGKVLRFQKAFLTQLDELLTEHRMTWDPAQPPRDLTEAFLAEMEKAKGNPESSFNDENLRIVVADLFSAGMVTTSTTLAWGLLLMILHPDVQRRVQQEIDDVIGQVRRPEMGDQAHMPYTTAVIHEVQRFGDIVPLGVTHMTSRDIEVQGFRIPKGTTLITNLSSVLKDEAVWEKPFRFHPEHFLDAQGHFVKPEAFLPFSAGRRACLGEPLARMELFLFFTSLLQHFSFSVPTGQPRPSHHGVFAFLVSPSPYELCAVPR

Chain of Glucose-6-phosphate 1-dehydrogenase (P11413 whole entry): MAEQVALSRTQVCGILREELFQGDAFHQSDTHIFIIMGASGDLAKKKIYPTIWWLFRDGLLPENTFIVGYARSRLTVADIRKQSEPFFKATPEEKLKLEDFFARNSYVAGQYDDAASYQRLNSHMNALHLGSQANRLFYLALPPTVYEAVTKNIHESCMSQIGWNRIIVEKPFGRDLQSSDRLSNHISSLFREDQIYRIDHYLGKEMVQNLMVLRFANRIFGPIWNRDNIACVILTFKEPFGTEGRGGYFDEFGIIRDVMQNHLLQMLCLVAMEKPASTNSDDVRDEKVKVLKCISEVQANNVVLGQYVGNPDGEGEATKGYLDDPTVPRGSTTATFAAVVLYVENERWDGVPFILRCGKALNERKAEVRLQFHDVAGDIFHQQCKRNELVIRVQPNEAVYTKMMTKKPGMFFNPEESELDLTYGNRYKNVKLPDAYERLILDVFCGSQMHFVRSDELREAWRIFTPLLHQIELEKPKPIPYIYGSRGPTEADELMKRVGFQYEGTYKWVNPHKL
Chain of Voltage-dependent T-type calcium channel subunit alpha-1H (O95180 whole entry): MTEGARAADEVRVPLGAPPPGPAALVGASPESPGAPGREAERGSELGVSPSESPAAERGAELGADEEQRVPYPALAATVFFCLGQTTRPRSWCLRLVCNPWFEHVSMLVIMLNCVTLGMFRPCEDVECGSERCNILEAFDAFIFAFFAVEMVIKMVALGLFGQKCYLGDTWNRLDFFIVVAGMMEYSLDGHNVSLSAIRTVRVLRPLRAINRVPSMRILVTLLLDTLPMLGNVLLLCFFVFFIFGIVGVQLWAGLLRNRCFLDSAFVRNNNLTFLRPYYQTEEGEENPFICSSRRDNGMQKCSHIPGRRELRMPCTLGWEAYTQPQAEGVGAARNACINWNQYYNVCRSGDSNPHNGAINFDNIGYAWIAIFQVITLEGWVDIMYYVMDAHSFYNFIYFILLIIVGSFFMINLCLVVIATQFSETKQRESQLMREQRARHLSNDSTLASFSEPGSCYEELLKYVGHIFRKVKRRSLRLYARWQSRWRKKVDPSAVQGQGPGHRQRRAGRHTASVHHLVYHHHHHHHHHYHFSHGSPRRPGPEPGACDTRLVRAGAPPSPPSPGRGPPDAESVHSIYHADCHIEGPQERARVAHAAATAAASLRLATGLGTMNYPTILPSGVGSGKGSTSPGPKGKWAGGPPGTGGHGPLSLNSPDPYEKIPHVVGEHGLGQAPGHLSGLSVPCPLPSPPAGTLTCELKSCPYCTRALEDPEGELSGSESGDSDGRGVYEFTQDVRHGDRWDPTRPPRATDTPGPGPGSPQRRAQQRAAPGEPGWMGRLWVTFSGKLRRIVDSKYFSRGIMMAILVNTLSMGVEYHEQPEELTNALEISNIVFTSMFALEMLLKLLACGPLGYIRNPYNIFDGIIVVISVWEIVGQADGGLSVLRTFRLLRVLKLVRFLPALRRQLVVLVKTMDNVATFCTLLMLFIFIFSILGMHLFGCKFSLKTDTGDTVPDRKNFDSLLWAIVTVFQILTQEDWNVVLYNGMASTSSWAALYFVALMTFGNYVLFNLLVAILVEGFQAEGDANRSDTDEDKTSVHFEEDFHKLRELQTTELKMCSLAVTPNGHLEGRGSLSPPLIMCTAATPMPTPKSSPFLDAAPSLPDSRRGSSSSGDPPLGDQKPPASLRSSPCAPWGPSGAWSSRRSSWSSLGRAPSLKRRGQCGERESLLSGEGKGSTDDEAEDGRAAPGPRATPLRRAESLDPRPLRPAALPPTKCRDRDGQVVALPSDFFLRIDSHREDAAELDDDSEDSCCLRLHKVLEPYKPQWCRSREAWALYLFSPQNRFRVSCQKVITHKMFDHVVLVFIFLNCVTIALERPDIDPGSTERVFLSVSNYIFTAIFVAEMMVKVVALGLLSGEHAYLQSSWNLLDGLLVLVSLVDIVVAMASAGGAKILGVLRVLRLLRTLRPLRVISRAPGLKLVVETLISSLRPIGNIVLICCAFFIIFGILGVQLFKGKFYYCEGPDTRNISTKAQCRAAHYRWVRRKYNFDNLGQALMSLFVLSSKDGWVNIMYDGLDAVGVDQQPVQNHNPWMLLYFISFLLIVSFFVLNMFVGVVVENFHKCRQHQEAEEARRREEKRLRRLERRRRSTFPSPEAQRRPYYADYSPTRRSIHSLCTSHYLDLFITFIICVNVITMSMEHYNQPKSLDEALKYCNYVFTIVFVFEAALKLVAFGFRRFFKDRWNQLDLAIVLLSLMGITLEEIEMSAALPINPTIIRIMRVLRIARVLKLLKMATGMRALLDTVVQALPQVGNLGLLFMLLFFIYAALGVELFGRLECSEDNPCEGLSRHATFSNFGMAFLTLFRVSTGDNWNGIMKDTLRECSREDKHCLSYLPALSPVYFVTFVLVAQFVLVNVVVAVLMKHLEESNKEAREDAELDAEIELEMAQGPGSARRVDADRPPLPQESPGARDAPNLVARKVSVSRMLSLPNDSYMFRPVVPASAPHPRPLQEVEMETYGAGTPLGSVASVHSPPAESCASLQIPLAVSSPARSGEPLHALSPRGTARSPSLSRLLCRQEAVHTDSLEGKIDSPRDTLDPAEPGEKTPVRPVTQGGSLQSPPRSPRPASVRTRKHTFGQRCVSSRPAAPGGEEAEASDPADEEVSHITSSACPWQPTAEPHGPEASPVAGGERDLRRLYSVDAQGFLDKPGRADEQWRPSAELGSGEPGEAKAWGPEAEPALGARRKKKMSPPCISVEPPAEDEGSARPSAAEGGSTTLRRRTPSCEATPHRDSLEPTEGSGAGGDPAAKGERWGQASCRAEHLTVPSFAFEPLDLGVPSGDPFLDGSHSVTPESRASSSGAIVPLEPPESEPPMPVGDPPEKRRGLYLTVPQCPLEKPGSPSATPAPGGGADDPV
T1 sequence (Q9HC16 whole entry): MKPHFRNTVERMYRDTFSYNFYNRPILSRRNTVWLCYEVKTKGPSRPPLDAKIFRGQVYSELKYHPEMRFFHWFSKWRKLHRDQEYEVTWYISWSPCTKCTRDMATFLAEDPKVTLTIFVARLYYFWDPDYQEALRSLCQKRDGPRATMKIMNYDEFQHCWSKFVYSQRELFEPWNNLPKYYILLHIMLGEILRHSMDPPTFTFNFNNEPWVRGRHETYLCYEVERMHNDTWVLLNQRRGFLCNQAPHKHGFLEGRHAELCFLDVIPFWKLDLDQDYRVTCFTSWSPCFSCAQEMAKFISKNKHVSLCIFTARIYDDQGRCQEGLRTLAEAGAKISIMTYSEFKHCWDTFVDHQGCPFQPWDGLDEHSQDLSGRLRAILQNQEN
T2 sequence (P31941 whole entry): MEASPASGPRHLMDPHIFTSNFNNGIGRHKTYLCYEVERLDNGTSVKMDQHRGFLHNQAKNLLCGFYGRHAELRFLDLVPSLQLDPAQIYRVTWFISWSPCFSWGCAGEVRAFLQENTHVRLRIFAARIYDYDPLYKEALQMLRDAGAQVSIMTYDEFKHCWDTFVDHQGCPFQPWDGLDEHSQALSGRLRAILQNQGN
Chain of Nonstructural protein 1 (Q194T2 whole entry): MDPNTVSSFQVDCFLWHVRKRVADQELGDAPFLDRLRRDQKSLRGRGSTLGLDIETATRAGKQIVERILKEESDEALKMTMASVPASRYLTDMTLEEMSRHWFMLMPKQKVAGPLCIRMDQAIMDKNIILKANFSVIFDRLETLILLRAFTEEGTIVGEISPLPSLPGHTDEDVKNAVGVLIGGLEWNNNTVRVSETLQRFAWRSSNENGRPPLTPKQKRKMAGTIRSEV

## CCCCCC(O)CCc1nnc(S)n1-c1ccccc1 (stereo not given)
[1]
  IC50: 6.33 µM (active)
[2]
  IC50: > 100 µM (inactive)

## CCN1CCN(Cc2ccc(NC(=O)Nc3ccc(OC)cc3)cc2)CC1
[3]
  IC50: 25.1 µM (active)

## O=C(O)CCCNC(=O)/C(=C\C=C\c1ccccc1)NC(=O)c1ccccc1Cl
[3]
  IC50: 86.8 µM (active)

## FC(F)(F)c1nc(N2CCCC2)ncc1-c1nnnn1-c1ccc(Cl)cc1
[4]
  EC50: 14.6 µM (active)

## CCc1n(CC(O)COC2CCCCC2)c2ccccc2[n+]1C (stereo not given)
[5]
  IC50: 1.75 µM (active)
[6]
  IC50: 1.42 µM (active)

## O=C(NN1C(=O)c2ccccc2NC1c1ccccn1)c1ccccc1 (stereo not given)
[7]
  IC50: 81.1 µM (active)

## COc1ccc(N2C(=O)CC(Sc3n[nH]c(-c4ccccc4)n3)C2=O)cc1 (stereo not given)
[1]
  IC50: 14.9 µM (active)
[2]
  IC50: > 100 µM (inactive)

## COc1cccc(-c2cc(C(=O)Nc3cc(C)n(Cc4ccc(Cl)cc4)n3)no2)c1
[8]
  IC50: > 80 µM (inactive)

## O=C(O)c1cccc(S(=O)(=O)Nc2ccc(O)cc2Sc2nc3ccccc3s2)c1
[3]
  IC50: 9.02 µM (active)

## Cc1ccccc1NC(=O)N1CCCC(c2nc(-c3ccc(C(C)C)cc3)no2)C1 (stereo not given)
[9]
  EC50: 23.1 µM (active)
[10]
  EC50: 157 nM (active)
[4]
  EC50: 8.11 µM (active)
[11]
  EC50: 5.18 µM (active)

## [O-]/[N+](=C\c1ccncc1)c1ccccc1
[12]
  IC50: > 80 µM (inactive)

## CCN1C(=O)/C(=C/NNC(=O)c2ccncc2)C(=O)NC1=S
[13]
  IC50: 13.3 µM (active)
[7]
  IC50: 85.1 µM (active)

## Cc1cccc(NC(=O)CSc2nc3ccccc3o2)c1
[4]
  EC50: 4.44 µM (active)

## O=C(Nc1nnc(S(=O)(=O)N2CCCCC2)s1)c1cccc(Br)c1
[12]
  IC50: > 80 µM (inactive)

## CCNS(=O)(=O)c1ccc(CCC(=O)NCc2ccccc2)cc1
[7]
  IC50: 60.1 µM (active)

## O=S(=O)(c1cccc(-c2nnc(S)n2Cc2ccccc2)c1)N1CCOCC1
[1]
  IC50: 4.28 µM (active)
[2]
  IC50: > 100 µM (inactive)

## O=C(CSc1ccccn1)Nc1cccc2ccccc12
[5]
  IC50: 8.82 µM (active)
[6]
  IC50: 6 µM (active)

## COc1ccc(C2NC(=O)c3sc(=S)n(-c4ccccc4)c3N2)cc1 (stereo not given)
[4]
  EC50: 1.23 µM (active)
[14]
  EC50: 21.6 µM (active)
[15]
  EC50: 22.6 µM (active)

## COc1cc(CNc2nc[nH]n2)cc(Br)c1OC
[3]
  IC50: 8.2 µM (active)

## CC(=O)Nc1ccc2nc(-c3ccccn3)[nH]c2c1
[7]
  IC50: 94 µM (active)

## O=C(NNC(=S)NCCc1ccccc1)c1ccc(Br)s1
[7]
  IC50: 9.19 µM (active)

## O=[N+]([O-])c1cc(S(=O)(=O)Nc2cccc(C(F)(F)F)c2)ccc1-n1nnc2ccccc21
[4]
  EC50: 3.52 µM (active)
[16]
  IC50: 4.72 µM (active)
[17]
  IC50: 7.12 µM (active)

## Cc1c(Cl)c([N+](=O)[O-])nn1Cc1ccc(C(=O)N/N=C\c2cccc(Br)c2)o1
[18]
  CC50: 39.4 µM (active)
[12]
  IC50: > 80 µM (inactive)
[19]
  AC50: 25.1 µM (inconclusive)

## O=[N+]([O-])c1ccccc1/C=N/n1c(S)nnc1-c1cccnc1
[1]
  IC50: 3.08 µM (active)
[2]
  IC50: > 100 µM (inactive)
